Earlier results, collected in US11833161B2, “Compositions and methods for treatment of skin infections” (priority 2015, dated 2023).

Tests used:
warts (verrucae) = details: one case, 2 large mosaic verruca; previous treatments by 2 podiatrists and a dermatologist over 14 months
cutaneous warts = details: meta-analysis of trials, topical treatment of cutaneous warts; range in brackets

Compound: CN/C(=N/CCSCc1nc[nH]c1C)NC#N [cimetidine]
- outcome of previous treatments in the difficult case (warts (verrucae)): unsuccessful

Compound: O=C(O)c1ccccc1O [salicylic acid]
- cure rate (cutaneous warts): 52% (0-87%)

Compound: Vitamin A
- outcome of previous treatments in the difficult case (warts (verrucae)): unsuccessful
